Patent publication US20080146540A1, “Methods of diagnosis and treatment for asthma, allergic rhinitis and other respiratory diseases based on haplotype association” (priority 2003, published 2008)

Tested on: asthma patients
Assay: Phase II clinical study CEP-1347-201: methacholine challenge test (MCT; PC20 ANCOVA, survival analysis, model based EC50 analysis, AUC analysis)
Type: in vivo, human
Conditions: for Percent of subjects with an increase in the AUC for the methacholine dose-response curve (AUCPost > AUCPre): after 8 weeks, placebo 33%; for median event-causing (20% drop in FEV1) methacholine concentration, PC20 survival analysis at week 8: placebo 3.0, log-rank p=0.02; for % Shift in EC50 (methacholine): model based analysis, vs placebo EC50; for Patients with Censored PC20 / Patients with PC20: week 8; for PC20 Change from Baseline at Week 8, LS Mean: ANCOVA, actual + imputed PC20
Experimental: A methacholine challenge test (MCT) was conducted at baseline and at the end of the 8-week treatment period in a subset of patients. The MCT test was not undertaken if, in the opinion of the investigator, MCT administration was contraindicated based on the patient's condition or the patient declined to participate. Patients that underwent a MCT were exposed to escalating doses of methacholine (methacholine administration typically leads to an acute decrease in lung function) and changes in lung function were measured by FEV1. The dose of methacholine was escalated until FEV1 decreased by 20% or the maximum MCT dose was reached. The dose of methacholine that produced a 20% decrease in FEV1 (PC20) was recorded. The change in FEV1 associated with each administration/dose of methacholine was recorded
The methacholine challenge test was conducted in a subset of patients at baseline and at the end of the 8-week treatment period.
In these cases the highest methacholine dose the patient received was assumed to be the PC20.
A 20% drop in FEV1 (PC20) was considered to be an event observation and the methacholine dose was treated as the “survival time” variable in the survival analysis. […] A Kaplan-Meier's product-limit estimate of the survival curve was generated; treatment effects were compared using a standard log-rank test; and baseline MCT information was ignored.
To make use of all methacholine-FEVI data a post hoc, model based analysis (i.e., nonlinear mixed effects model) was undertaken. The goal of the model based analysis was to estimate the magnitude of CEP-1347 effect on the patient's sensitivity to methacholine.
• the approach is more complex and less widely accepted compared to ANCOVA or survival analysis approaches • assumptions regarding the model structure are necessary • the suppressive effect of methacholine on lung functions was assumed to follow a classic inhibitory EMAX model, • the attenuating effect of CEP-1347 was assumed to shift an individual's EC50 or sensitivity to methacholine.
The model based analysis utilized 2202 FEV1 measurements following methacholine dosing. MCT data were available from 123 patients corresponding to approximately 17.9 observations per patient.
FEV1=E0*(1−EMAX*MET^γ/(EC50^γ+MET^γ))+ε(1) (Eq. 1)
Where, E0 was the FEV1 associated with a methacholine dose of 0, MET was the methacholine dose, EMAX was the maximum fractional suppression of FEV1 by methacholine, EC50 was the methacholine concentration at which 50% of maximal suppression was achieved, γ was the Hill coefficient, and ε (1) was the residual error term.
Inter-subject random effects were included on EMAX and EC50. […] Subsequently, the effect of CEP-1347 on the methacholine dose-response was added to the model. […] In other words, this model based approach asks the questions “Does CEP-1347 cause a patient to be less sensitive to methacholine (i.e., increase the individual patient's methacholine EC50)”. For the purposes of this model based analysis equation 2 describes the implementation of the CEP-1347 effect on the attenuation of the methacholine dose-response relationship:
Model selection was done on the basis of the log likelihood criterion (p<0.05) and visual inspection of goodness-of-fit plots. The difference in −2 times the log of the likelihood (−2LL) between a full and reduced model is asymptotically χ^2 distributed with degrees of freedom equal to the difference in number of parameters between the two models.

SMILES: CCSCc1ccc2c(c1)c1c3c(c4c5cc(CSCC)ccc5n5c4c1n2C1CC(O)(C(=O)OC)C5(C)O1)CNC3=O (centres unmarked) [CEP-1347]
- Percent of subjects with an increase in the AUC for the methacholine dose-response curve (AUCPost > AUCPre) (10 mg BID, Cochran-Mantel-Haenzel p = 0.075, logistic regression p = 0.039): 55%
- median event-causing (20% drop in FEV1) methacholine concentration, PC20 survival analysis at week 8 (10 mg BID, 95% confidence interval (0.85,+∞)): 3.7 µg/mL
- % Shift in EC50 (methacholine) (10 mg BID): −40%
- Patients with Censored PC20 (10 mg BID): 11 (39%) n (% of treatment group)
- Patients with PC20 (10 mg BID): 17 (61%) n (% of treatment group)
- Percent of subjects with an increase in the AUC for the methacholine dose-response curve (AUCPost > AUCPre) (25 mg BID): 58%
- median event-causing (20% drop in FEV1) methacholine concentration, PC20 survival analysis at week 8 (25 mg BID, 95% confidence interval (1.87,+∞)): 6.8 µg/mL
- % Shift in EC50 (methacholine) (25 mg BID): 21%
- Patients with Censored PC20 (25 mg BID): 8 (47%) n (% of treatment group)
- Patients with PC20 (25 mg BID): 9 (53%) n (% of treatment group)
- PC20 change from baseline at week 8 (ANCOVA) (50 mg BID group): seemingly worsened
- Percent of subjects with an increase in the AUC for the methacholine dose-response curve (AUCPost > AUCPre) (50 mg BID): 59%
- median event-causing (20% drop in FEV1) methacholine concentration, PC20 survival analysis at week 8 (50 mg BID, 95% confidence interval (0.6, 3.0)): 0.85 µg/mL
- % Shift in EC50 (methacholine) (50 mg BID): 43%
- increase of the methacholine EC50 (shift of methacholine-FEV1 dose-response curve to the right), model based analysis (50 mg BID, nonlinear mixed effects model, effect size estimates imprecise): 43%
- Patients with Censored PC20 (50 mg BID): 3 (14%) n (% of treatment group)
- Patients with PC20 (50 mg BID): 18 (86%) n (% of treatment group)
- PC20 Change from Baseline at Week 8, LS Mean (CEP-1347 10 mg BID, p .66): 1.00
- PC20 Change from Baseline at Week 8, LS Mean (CEP-1347 25 mg BID, p .77): 1.84
- PC20 Change from Baseline at Week 8, LS Mean (CEP-1347 50 mg BID, p .02): −1.18
- Summary of MCT analyses: ANCOVA, Results and Comments (PC20 at baseline and week 8): Not significant.
- PC20 change from baseline at week 8 (ANCOVA) (all CEP-1347 groups vs placebo, PC20 imputed as highest methacholine dose where no 20% FEV1 decline): No clinical or statistically significant improvement
- effect on methacholine effects on FEV1, model based analysis (all doses, full vs reduced model p=0.02): dose related attenuation
